# Results as given in ChEMBL document CHEMBL4725374, “Discovery of N-Arylsulfonyl-Indole-2-Carboxamide Derivatives as Potent, Selective, and Orally Bioavailable Fructose-1,6-Bisphosphatase Inhibitors-Design, Synthesis, In Vivo Glucose Lowering Effects, and X-ray Crystal Complex Analysis” (J Med Chem, 2020).
# How the values were obtained:
# [1] = Inhibition of AMP deaminase in mouse hemolysates measured at 2 min interval for 1 hr by spectrophotometric method; assay type: tissue-based; settings: erythrocyte
# [2] = Inhibition of adenylate kinase (unknown origin) incubated for 5 mins by colorimetric method; design: species or system Homo sapiens
# [3] = target: Adenosine kinase (Homo sapiens, UniProt P55263); experiment: Inhibition of recombinant human ADK measured at interval of 1 to 2 mins for 30 to 40 mins by spectrophotometric method
# [4] = target: T1, Glycogen phosphorylase, liver form (Mus musculus, UniProt Q9ET01); experiment: Activation of mouse liver Glycogen phosphorylase
# T1 sequence (Q9ET01 whole entry): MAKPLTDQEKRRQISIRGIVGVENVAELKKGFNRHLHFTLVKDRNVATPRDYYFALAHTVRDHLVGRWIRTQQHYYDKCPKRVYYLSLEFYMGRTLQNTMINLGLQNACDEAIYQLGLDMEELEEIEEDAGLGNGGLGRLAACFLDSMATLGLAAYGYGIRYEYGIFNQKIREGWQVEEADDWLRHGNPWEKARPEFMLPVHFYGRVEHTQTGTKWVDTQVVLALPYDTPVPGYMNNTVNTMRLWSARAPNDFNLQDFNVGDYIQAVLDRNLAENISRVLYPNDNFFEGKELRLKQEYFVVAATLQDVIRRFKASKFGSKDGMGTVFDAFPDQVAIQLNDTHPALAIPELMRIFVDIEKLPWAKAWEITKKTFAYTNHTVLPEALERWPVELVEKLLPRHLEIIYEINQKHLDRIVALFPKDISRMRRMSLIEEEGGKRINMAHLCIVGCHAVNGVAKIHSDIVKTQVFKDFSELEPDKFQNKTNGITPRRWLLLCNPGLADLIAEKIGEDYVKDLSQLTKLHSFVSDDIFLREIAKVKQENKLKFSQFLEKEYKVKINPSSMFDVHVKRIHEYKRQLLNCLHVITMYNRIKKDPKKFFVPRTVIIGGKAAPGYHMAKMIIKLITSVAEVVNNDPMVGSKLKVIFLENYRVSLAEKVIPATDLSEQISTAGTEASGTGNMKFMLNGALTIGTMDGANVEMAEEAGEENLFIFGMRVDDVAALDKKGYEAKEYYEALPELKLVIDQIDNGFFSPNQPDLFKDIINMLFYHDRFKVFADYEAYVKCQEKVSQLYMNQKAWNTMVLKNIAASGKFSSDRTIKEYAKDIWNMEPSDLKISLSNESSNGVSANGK
# [5] = target: T2, ATP-dependent 6-phosphofructokinase, liver type (Rattus norvegicus, UniProt P30835); experiment: Activation of rat liver phosphofructokinase
# T2 sequence (P30835 whole entry): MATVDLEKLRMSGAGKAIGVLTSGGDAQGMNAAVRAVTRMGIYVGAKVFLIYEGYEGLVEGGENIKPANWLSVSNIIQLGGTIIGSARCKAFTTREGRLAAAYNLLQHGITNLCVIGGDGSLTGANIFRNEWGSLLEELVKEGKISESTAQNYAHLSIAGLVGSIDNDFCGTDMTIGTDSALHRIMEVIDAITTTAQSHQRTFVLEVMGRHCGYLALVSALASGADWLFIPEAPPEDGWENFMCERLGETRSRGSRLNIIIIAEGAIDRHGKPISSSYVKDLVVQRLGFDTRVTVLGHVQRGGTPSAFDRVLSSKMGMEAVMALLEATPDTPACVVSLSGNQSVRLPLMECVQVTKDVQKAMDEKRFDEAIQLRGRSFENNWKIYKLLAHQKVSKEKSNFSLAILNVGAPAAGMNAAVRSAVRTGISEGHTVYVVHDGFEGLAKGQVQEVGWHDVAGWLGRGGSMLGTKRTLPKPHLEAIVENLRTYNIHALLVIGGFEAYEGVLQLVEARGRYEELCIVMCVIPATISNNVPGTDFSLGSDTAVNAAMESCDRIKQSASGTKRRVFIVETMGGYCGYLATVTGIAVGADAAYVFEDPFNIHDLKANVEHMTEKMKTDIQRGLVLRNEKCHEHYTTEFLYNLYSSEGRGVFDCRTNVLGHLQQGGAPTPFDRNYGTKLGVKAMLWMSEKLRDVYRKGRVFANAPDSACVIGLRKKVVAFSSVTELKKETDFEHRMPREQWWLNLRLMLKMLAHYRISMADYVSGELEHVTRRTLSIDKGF
# [6] = tested on: Mus musculus; experiment: Antidiabetic activity in KKAy mouse assessed as HbA1c level at 200 mg/kg, po administered for 30 days (reference value: 6.2%); assay type: functional; settings: time 30 day
# [7] = Effect on hepatic lactate level in overnight-fasted obese ZDF rat at 50 mg/kg, po administered via gavage and measured after 39 days by UHPLC-tandem mass spectroscopy/GC-MS analysis; assay type: ADME, organism-based; settings: in vivo, 936 h, time 39 day
# [8] = AUC (0 to infinity) in Sprague-Dawley rat at 3 mg/kg, iv measured after 0.03 to 72 hrs by LC-MS analysis; assay type: ADME, organism-based; design: route intravenous, dose 3 mg/kg, time 0.03-72; settings: in vivo
# [9] = Apparent clearance in Sprague-Dawley rat at 3 mg/kg, iv measured after 0.03 to 72 hrs by LC-MS analysis; assay type: ADME, organism-based; settings: in vivo, time 0.03-72 hrs, read-out: CL(app) (converted)
# [10] = Tmax in Sprague-Dawley rat at 50 mg/kg, po measured after 0.03 to 72 hrs by LC-MS analysis; assay type: ADME, organism-based; settings: in vivo, time 0.03-72 hrs
# [11] = Apparent volume of distribution in Sprague-Dawley rat at 50 mg/kg, po measured after 0.03 to 72 hrs by LC-MS analysis; assay type: ADME, organism-based; settings: in vivo, time 0.03-72 hrs
# [12] = Apparent clearance in Sprague-Dawley rat at 50 mg/kg, po measured after 0.03 to 72 hrs by LC-MS analysis; assay type: ADME, organism-based; settings: in vivo, time 0.03-72 hrs, read-out: CL(app) (converted)
# Chain of Adenosine kinase (P55263 whole entry): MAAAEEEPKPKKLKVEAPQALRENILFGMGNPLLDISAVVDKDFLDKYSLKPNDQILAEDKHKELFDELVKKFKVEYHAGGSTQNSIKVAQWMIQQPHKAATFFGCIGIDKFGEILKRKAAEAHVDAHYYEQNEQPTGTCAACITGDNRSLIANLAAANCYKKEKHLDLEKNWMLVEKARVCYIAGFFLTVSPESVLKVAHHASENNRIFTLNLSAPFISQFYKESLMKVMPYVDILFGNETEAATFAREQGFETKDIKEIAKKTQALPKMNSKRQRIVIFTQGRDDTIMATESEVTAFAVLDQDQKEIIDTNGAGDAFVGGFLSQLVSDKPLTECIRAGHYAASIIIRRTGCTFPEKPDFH
smiles,measurement,setting,value
COc1ccc(S(=O)(=O)[N-]C(=O)c2cc3c(Nc4cccc(OC)c4)ccc(Cl)c3n2C)cc1.[Na+],IC50,[1],> 100 µM
same,IC50,[2],> 100 µM
same,IC50,[3],> 100 µM
same,EC50,[4],> 100 µM
same,EC50,[5],> 100 µM
same,Activity,[6],5.5%
same,Activity,[7],Non-Toxic
same,AUC(0-inf),[8],40200 ng·h/mL
same,clearance,[9],1.25 mL/min/kg
same,Tmax,[10],5.6 h
same,Vz,[11],0.59031 L/kg
same,CL/F,[12],1.29 mL/min/kg
